One series has as its system MCF-7. As to the kind of experiment: cell-proliferation assay (MTS), MCF-7. Particulars: MCF-7, human breast carcinoma. The series is classed as cell-based. How it is done:
Compound 1 was evaluated in in vitro cell-proliferation assays (BrdU assay, MTS assay, or Cell Titer Glo (CTG) assay) in multiple cancer cell lines and patient-derived organoid models to determine half-maximal inhibitory concentrations (IC50s).
Viability and BrdU thymidine incorporation assays were performed in multiwell plates seeded with cells in growth medium. After seeding, multiwell plates were cultured for 24 hours in a humidified incubator at 37° C. to promote adherence. […] The cultures were incubated for 168 hours after which the number of viable cells or the amount of thymidine incorporation in each test well was assessed by the methods as indicated above. Readouts were performed using an EnVision® Multilabel Reader (PerkinElmer, Waltham, MA) and the results were expressed as a percent of the negative control. Percent of Control values were plotted against the corresponding Compound 1 concentration and the relative IC50 value was determined from a non-linear regression curve as the concentration where inhibition was half-maximal. For cell lines where the number of IC50 determinations exceeded one, the IC50 was expressed as the mean IC50±SD.
Half-maximal inhibitory concentration (IC50) values for Compound 1 inhibition of cell proliferation were determined for nine cancer cell lines and one normal human fibroblastcell line.

The test system of series [1] is SU60 patient-derived colorectal cancer xenograft. As to the kind of experiment: in vivo efficacy, SU60 patient-derived colorectal cancer xenograft model. The conditions noted are these: SU60 CRC PDX; for % TGI: Day 19; for Median Tumor Volumes Diff.: Day 19 minus Day 1. How it is done: The therapeutic in vivo efficacy of Compound 1 was evaluated in SU60 colorectal cancer, KYSE-150 esophageal cancer, COH70 triple-negative breast cancer, GXA-3036 gastric adenocarcinoma and OCI-LY19 Diffuse Large B-Cell Non-Hodgkin's Lymphoma xenograft models. In all studies, efficacy was determined based on percent tumor growth inhibition (TGI), differences in mean tumor growth, and statistical assessment of differences in net tumor volume distributions on the day of TGI analysis between control and treated animals. Tolerability was assessed based on differences in mean body weights between control and treated animals over the course of the study.
The in vivo therapeutic efficacy and tolerability of Compound 1, administered orally as the free acid form in a vehicle comprised of 50% polyethylene glycol 400 (PEG 400) and 50% PBS (pH 9), was evaluated in the SU60 CRC PDX model established in female non-obese diabetic/severe combined immunodeficiency (NOD/SCID) gamma (NSG) mice. Each mouse was inoculated subcutaneously in the abdomen with 2×10^6 SU60 tumor cells (0.1 ml) suspended in Matrigel. When the average tumor size reached ˜270 mm3, test animals were randomized into 6 groups consisting of 8 mice per group and treatments were initiated. Control mice received 50% PEG 400 and 50% PBS (pH 9) vehicle PO QD×7. Treated mice received Compound 1 in vehicle PO at 20 or 10 mg/kg QD×7, at 20 mg/kg QOD, at 23 mg/kg 3 on/4 off, or at 14 mg/kg at 5 on/2 off. TGI was determined on Day 19 as (1−Diff treated/Diff control)×100. The difference in mean net tumor volumes on the day of TGI analysis for treated versus control animals was evaluated statistically using one-way analysis of variance (ANOVA) followed by Dunnett's multiple comparisons test. Adjusted p-values are shown where a calculated probability (p)≤0.05 was considered statistically significant. Individual tumors were measured twice weekly in two dimensions using a caliper, and the tumor volumes (TV) in mm3 were calculated using the formula: TV=0.5 (l×w×h), where l, w, and h are the tumor length, width, and height in mm, respectively; Mean tumor volumes±standard error of the mean (SEM) were calculated and plotted versus days of dosing (FIG. 10 left panel). Body weights were measured twice weekly. Body weights±SEM were calculated and plotted versus days of dosing (FIG. 10 right panel).
A general note: Xenograft models place foreign cells or tissue in a host animal.

In series [2] the test system is erythroid hematopoietic progenitor cells derived from human bone marrow. As to the kind of experiment: erythroid colony formation of hematopoietic progenitor cells. The series is classed as cell-based. How it is done: Compound 1 was evaluated for its effects on proliferation of erythroid and myeloid hematopoietic progenitor cells derived from human bone marrow at […] Technologies Inc. (Vancouver, BC, Canada).
Cells were thawed rapidly at 37° C. into DNAse I and then diluted in 10 mL of Iscove's Modified Dulbecco's medium containing 2% fetal bovine serum (IMDM+2% FBS) and washed by centrifugation (1200 rpm for 10 minutes at room temperature). The supernatant was discarded and the cell pellet resuspended in a known volume of IMDM+2% FBS. A nucleated cell count (3% glacial acetic acid) and viability assessment (trypan blue exclusive test) were performed.
Compound 1 and positive control (panobinostat) were diluted in DMSO and tested at concentrations ranging from 0.002 μM to 5 μM in final media. These dilutions provided the appropriate final test concentrations required for the test and control articles ([…], and 0.002 μM).
Test and control articles were incubated with human bone marrow hematopoietic progenitor cells. After 14 days, cell colonies were assessed.
To calculate the concentration of 50% and 90% inhibition of colony growth (IC50 and IC90) for each test article, a dose response curve was generated plotting the log of the test article concentration versus the percentage of control colony growth using GraphPad Prism. […] The IC50 and IC90 values for both test and control articles were derived from an interpolation of the curve fit. In cases where the IC50/90 value reported by GraphPad Prism is a value beyond the range of concentrations that were actually tested, if this value is more than 4 times the highest concentration tested, or where GraphPad Prism cannot calculate an IC50/90 value, notations of >5 μM (for test article compound 1) are used.

Where [3] appears, read: 14 mg/kg (70 weekly) PO 5 on/2 off.
The mark [4] stands for this setting: 23 mg/kg (69 weekly) PO 3 on/4 off.

Where two headings read alike, the source gives them in different places.

In general, IC50 refers to the concentration that inhibits the measured activity by half. The term IC90 denotes the concentration needed for an effect of 90%. On to `CC(C)c1ccc(N(C)c2ccc3c(c2)OCC[C@H]3CNc2cnccc2C(=O)O)cc1` [Compound 1, 3-({[(4R)-7-{methyl[4-(propan-2-yl)phenyl]amino}-3,4-dihydro-2H-1-benzopyran-4-yl]methyl}amino)pyridine-4-carboxylic acid], for which the IC50 is under 40 nM in the series with MCF-7 (Homo sapiens, MCF7, 168 h); 37 nM in the series with MCF-7 (168 hours); over 5000 nM in series [2] (336 h, human bone marrow progenitor cells, 14 days, read-out: IC50, inhibition of erythroid colony formation); over 5 µg/mL in series [2] (336 h, human bone marrow progenitor cells, colony growth after 14 days, read-out: Erythroid IC50). The “tolerability (mean body weight changes)” value in series [1] (female NSG mice, all regimens, over the course of the study) is recorded as “well-tolerated”. Further, the “Median Tumor Volumes Day 19” value worked out at 1151 mm^3 in series [1] (female NSG mice, free acid 10 mg/kg (70 weekly) PO QD x7); 1300 mm^3 in series [1] (female NSG mice, free acid 14 mg/kg (70 weekly) PO 5 on/2 off); 1527 mm^3 in series [1] (female NSG mice, free acid 20 mg/kg (70 weekly) PO QOD); 767 mm^3 in series [1] (female NSG mice, free acid 20 mg/kg (140 weekly) PO QD x7); 1121 mm^3 in series [1] (female NSG mice, free acid 23 mg/kg (69 weekly) PO 3 on/4 off). Moreover, the “% TGI” value in series [1] (10 mg/kg (70 weekly) PO QD x7) is listed as 48%; in series [1] (setting [3]) it was 42%; in series [1] (20 mg/kg (70 weekly) PO QOD), 29%; in series [1] (20 mg/kg (140 weekly) PO QD x7), 71%; in series [1] (setting [4]), 52%. In addition, the “Median Tumor Volumes Diff.” value in series [1] (10 mg/kg (70 weekly) PO QD x7) amounted to 901 mm^3; in series [1] (setting [3]) it was 1019 mm^3; in series [1] (20 mg/kg (70 weekly) PO QOD), 1242 mm^3; in series [1] (20 mg/kg (140 weekly) PO QD x7), 506 mm^3; in series [1] (setting [4]), 833 mm^3. The compound further showed an IC90 in series [2] (336 h, human bone marrow progenitor cells, colony growth after 14 days) of over 5 µg/mL. For the same compound, the “concentrations at which colony morphology (size and density) was slightly compromised” value in series [2] (erythroid derived colonies) is listed as at least 1.67 μM. Also, in series [2] (progenitor cells from normal human bone marrow, p>0.01), the “effect on colony formation compared to 0.1% DMSO” value is “no significant effect”.

(Values after patent US20250025451A1, “TREATMENT OF CANCER WITH KDM4 INHIBITORS” (Celgene Corporation, priority 2021, published 2025).)
